Tests used:
D2.B10 mice [1] = assay: Myofiber cross-sectional area (CSA) in D2.B10 mice; type: in vivo, mouse (D2.B10-Dmd^mdx/J); settings: D2.B10 muscles, 1 mg/kg i.p. weekly
Text: (§1) Tibialis anterior (TA), gastrocnemius (GAS), DIA, and heart were collected from mice maintained under isoflurane anesthesia and sacrificed by cervical dislocation. These muscles were collected from C57BL/10J wt and mdx (5 mice/group) at the end of treatments and from DBA/2J wt and D2.B10 mice (5 mice/group) at two different time points to be examined by a pathologist (for more details see Additional Table 1). Due to the results obtained by the functional tests, muscles from only some treatment groups were analyzed in both DMD models (see Additional Table 1). All the collected muscles were fixed in 10% buffered formalin solution (Bio-optica, Milan, Italy) at + 4 °C for at least 48 h. After fixation, muscular samples were transversely trimmed, caged, and paraffin embedded overnight with an Automated Vacuum Tissue Processor Floor (ETP, Histo-Line Laboratories) and included in paraffin blocks. Serial transverse cross-sections (4 μm thick) were cut with a microtome (Leica RM 2255), collected onto uncoated glass slides, and stained using a standard protocol for hematoxylin and eosin (Mayer hematoxylin & Aqueous G Eosin 1%, Bio-Optica) and Sirius Red staining (Direct Red 80, Sigma-Aldrich). For the image analysis and quantitation, hematoxylin and eosin- and Sirius Red-stained slides were examined with an Olympus BX51 light microscope. From each sample, 1 to 3 random microphotographs at the magnification of × 4 and × 10 (TA, GAS and heart) or × 20 (DIA) were collected using Image-Pro Plus system. The digital images were processed by a pathologist using ImageJ software (U.S. National Institutes of Health, Bethesda, MD, USA). To quantify CSA and centralized nuclei (%) on hematoxylin and eosin-stained sections, one hundred myofibers were manually measured for each muscle/mouse using a tablet pen (Wacom Intruos) and analyzed by the ImageJ software after a linear calibration of 150 μm. The fibrotic area, corresponding to the area stained in red, was compared to the total area of the tissue section, and the results were expressed as percentage fibrosis. The % of fibrosis of muscles in the different treatment groups was expressed by averaging the three values obtained from each muscle.
The deciles of the CSA of the animals treated with Givinostat at the different doses were plotted against the corresponding deciles of the vehicle-treated mice and a linear regression analysis was performed on natural [CSAtreated = b CSAcontrol + a] and log_transformed data [log(CSAtreated) = log(a) + b log(CSAcontrol)]. […] In case of untransformed data, this means that the effect of Givinostat treatment is additive and any decile of the CSAtreatment distribution may be derived from the control data summing up a constant quantity (S) to each fiber AREA of the control group (CSAtreated = CSAcontrol + S). In case of log_transformed data, the effect of Givinostat has to be considered as a multiplicative factor on any generic fiber of the muscle under evaluation, whose size, after the treatment, results K times larger in comparison to the control group value (CSAtreated […] = K × CSAcontrol, with K = 10^a). The S or K parameter values were then determined through an iterative estimation procedure, based on sum of squares (SSQ) minimization, directly comparing the CSA distribution observed in treated animals with that obtained summing up the S value or multiplying by K the CSA values of the control group.

D2.B10 mice [2] = assay: Treadmill run to exhaustion test in D2.B10 mice; type: in vivo, mouse (D2.B10-Dmd^mdx/J); settings: Deflazacort, prednisone 1 mg/kg, lower doses of Givinostat
Text: (§2) For the efficacy studies, C57BL/10 J (Stock No: 000665) wild type (wt) and C57BL/10ScSn-Dmd^mdx/J (Stock No: 001801) 7–8-week-old male mice, DBA/2J wt (Stock No: 000671), and D2.B10-Dmd^mdx/J (Stock No: 013141) 6–7-week-old male mice were purchased from The Jackson Laboratories (Bar Harbor, Maine, USA). After 5 days of acclimatization in the animal facility, mice were randomized into different treatment groups based on their BW. C57BL/10J wt mice were assigned to the naive wt group (healthy mice that received no treatment, but were subjected to functional tests), whereas mdx mice were assigned to the following groups (9 mice/group; 4–5 mice/cage): naive mdx (mice that received no treatment, but were subjected to functional tests), vehicle (0.5% methylcellulose, p.o.), and Givinostat (0.1, 0.3, 1, 5, 10, 25, and 37.5 mg/kg, p.o.). DBA/2J mice were assigned to the naive wt group (healthy mice that received no treatment, but were subjected to functional tests), whereas D2.B10 mice were assigned to the following groups (12–13 mice/group; 4–5 mice/gage): vehicle (filtered tap water, p.o.), Givinostat (1, 5, 10, and 37.5 mg/kg, p.o.), prednisone 1 mg/kg, and Deflazacort 1 mg/kg (i.p.).
(§3) In the efficacy studies, Givinostat powder (ITF2357) was suspended in 0.5% methylcellulose (Sigma-Aldrich) and administered p.o. (by gavage) at the doses of 0.1, 0.3, 1, 5, 10, 25, and 37.5 mg/kg qdx5x15weeks (administration volume per mouse: 10 mL/kg) in mdx mice (see Additional Figure 1A). Vehicle-treated mdx mice received 0.5% methylcellulose suspension. Givinostat suspension was stored at + 4 °C, and it was freshly prepared every 7 days. Probably due to the impairment of their tongue and masticatory muscles, the oral gavage procedure turned out to be difficult to perform, and chronic treatment of D2.B10 mice by this route was considered to bear a high risk of damaging the esophagus. For this reason, Givinostat was administered in the drinking water. Givinostat was dissolved in filtered tap water and was administered in drinking water (throughout 24 h) for 105 days at the dose of 1, 5, 10, and 37.5 mg/kg/day, according to a daily estimate of water consumption of 4 ml/mouse/day. Water consumption was weekly monitored throughout the entire duration of the study weighing the bottle of each cage (maximum 4 mice per cage). Prednisone and Deflazacort powder (Sigma-Aldrich) was dissolved in 2% DMSO (Sigma-Aldrich) and diluted in sterile saline on injection days. Both drugs were administered weekly (for 15 weeks) by i.p. injection at the dose of 1 mg/kg in a volume of 10 mL/kg. Givinostat and steroid treatments started on days 7 and 9 of the experimental plan, respectively (see Additional Figure 1B). All mice were monitored daily and tolerability was evaluated on the basis of BW and clinical signs.
Run to exhaustion performance of mdx and D2.B10 mice was evaluated every 14 or 21 days, respectively, using a treadmill apparatus (Ugo Basile SRL, Italy). The exhaustion protocol consisted in an initially horizontal running at 5 m/min for 5 min after which the speed was increased 1 m/min every minute until exhaustion (the procedure was compliant with the standard operating procedures of TREAT–NMD Neuromuscular Network). […]
After taking baseline readings for behavioral assays (FNmax and distance run by the animals), mice were re-randomized based on these two parameters, also considering the previous randomization performed on their BW. […]

D2.B10 mice [3] = assay: Grip strength test (FNmax) in D2.B10 mice; type: in vivo, mouse (D2.B10-Dmd^mdx/J)
Text: as §2, §3
In both efficacy studies, the effectiveness of treatments was evaluated every week by measuring the forelimb strength by a grip strength meter (Ugo Basile SRL, Italy). BW of mdx (see Additional Figure 2) and D2.B10 mice (see Additional Figure 3) was also measured in order to normalize the absolute grip strength of each mouse with respect to its BW. The protocol provides 5 measurements for each mouse (the procedure was compliant with the standard operating procedures of TREAT–NMD Neuromuscular Network). The highest recorded value of maximal normalized strength (FNmax) obtained for each mouse at all the time points (from T0 to T15) was used for further analysis.
After taking baseline readings for behavioral assays (FNmax and distance run by the animals), mice were re-randomized based on these two parameters, also considering the previous randomization performed on their BW.
The grip strength and run to exhaustion tests were performed during the light-cycle phase, in the early hours of the morning (8:00–11:30 am). […]

[4] = Body weight of D2.B10 mice; type: in vivo, mouse (D2.B10-Dmd^mdx/J); settings: mouse, in vivo
Experimental: as §3, with “Givinostat and steroid treatments started on days 7 and 9 of the experimental plan, respectively (see Additional Figure 1B).” left out
In both efficacy studies, the effectiveness of treatments was evaluated every week by measuring the forelimb strength by a grip strength meter (Ugo Basile SRL, Italy). BW of mdx (see Additional Figure 2) and D2.B10 mice (see Additional Figure 3) was also measured in order to normalize the absolute grip strength of each mouse with respect to its BW. […] The highest recorded value of maximal normalized strength (FNmax) obtained for each mouse at all the time points (from T0 to T15) was used for further analysis.

D2.B10 mice [5] = assay: Muscle fibrosis by Sirius Red staining in D2.B10 mice; type: in vivo, mouse (D2.B10-Dmd^mdx/J)
Text: as §1

mdx mouse model = tested on: mdx mouse model; design: method as in PMID 21137017; settings: i.p.; cited from earlier work
[6] = design: method as in printed; settings: mice; ref not given; cited from earlier work
[7] = design: method as in PMID 15269190; settings: mice, i.p. dosing; cited from earlier work

With `CC(=O)OCC(=O)[C@@]12N=C(C)O[C@@H]1C[C@H]1[C@@H]3CCC4=CC(=O)C=C[C@]4(C)[C@H]3[C@@H](O)C[C@@]12C` [Deflazacort] the “Effect of steroid on cross-sectional area and centralized nuclei” value (D2.B10 mice [1]) was “unable to affect cross-sectional area or the number of centralized nuclei”, the “Effect on distance run, significance” value (D2.B10 mice [2]) was “not statistically significant” and the “Effect of steroid on FNmax in comparison” value (D2.B10 mice [3]; 1 mg/kg i.p. weekly, all the treatment period) was “lower and not significantly different from prednisone”. For the same compound, the “Time interval of significant FNmax improvement” value (D2.B10 mice [3]; Deflazacort 1 mg/kg i.p. weekly, Givinostat 1 mg/kg) was “from day 28 to day 90”, the “Body weight vs vehicle-treated mice” value [4] was “no significant differences” and the “Effect of steroid on fibrosis, summary” value (D2.B10 mice [5]; 1 mg/kg i.p. weekly) was “effective only in TA”. The “Reduction of fibrosis in DIA” value (D2.B10 mice [5]; T8) was “no significant effect”, the “Reduction of fibrosis in TA” value (D2.B10 mice [5]; T8, Givinostat 37.5 mg/kg, steroids 1 mg/kg, vs vehicle) was “about 22%” and the “Effect on fibrosis in GAS” value (D2.B10 mice [5]; T16) was “No significant effect”.
For `O=C(CCCCCCC(=O)Nc1ccccc1)NO` [Vorinostat], the “Dose of peak functional and histologic effects (bell-shaped dose-response curve)” value (mdx mouse model) is given as 1.2 mg/kg and the Oral bioavailability [6] is given as “very poor oral bioavailability”.
In the case of `CC(/C=C/C(=O)NO)=C\[C@@H](C)C(=O)c1ccc(N(C)C)cc1` [TSA, trichostatin A], the Half-life [7] is given as 6.3 min and the Peak plasma concentrations [7] is given as “micromolar”.
